Measurements: patent US6677298B2, “Regulators of PPARδ (β) and their use in the treatment of obesity and insulin resistance” (Bristol-Myers Squibb Company, priority 2000, dated 2004)
pIC50: −log10 of the molar value. Entries after “also recorded” stand apart in the source; their conditions may differ.

Experiments:
Gal4/PPARδ(β) = molecular target: T1, Gal4/PPARδ(β) (Homo sapiens, UniProt Q03181); test: Cell based transactivation assay, δ agonist mode (Gal4 RE driven SEAP reporter in CHO cells); settings: CHO cells stably transfected with Gal4/PPARδ(β); 3.16-31600 nM; FIG. 4
T1 construct: human PPARδ(β) LBD (amino acid 139-441); {Schmidt et al; expressed in transfected cells; host or cells: CHO cells, stably transfected
T1 sequence (P04386 1-144 partner limits assumed, one chain of several): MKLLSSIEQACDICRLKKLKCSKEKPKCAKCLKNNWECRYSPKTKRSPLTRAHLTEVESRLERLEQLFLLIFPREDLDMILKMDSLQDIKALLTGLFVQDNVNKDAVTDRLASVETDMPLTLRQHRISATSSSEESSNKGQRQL

PPARδ(β) LBD = molecular target: T2, PPARδ(β) LBD (Homo sapiens, UniProt Q03181); test: In vitro PPARδ(β) LBD ligand binding assay (SPA, 3H-labeled ligand displacement); settings: 50 nM 3H-labeled ligand, His-tagged LBD bacterial lysate, SPA beads, 1 hour room temperature; read-out: IC50, half maximal inhibition/displacement of 3H labeled PPARδ(β) ligand binding to PPARδ(β) LBD
T2 construct: His-tagged PPARδ(β) LBD (amino acid 139-441, Schmidt et al); made in house; host or cells: E. coli (crude lysate supernatant used)
T2 sequence (Q03181 139-441): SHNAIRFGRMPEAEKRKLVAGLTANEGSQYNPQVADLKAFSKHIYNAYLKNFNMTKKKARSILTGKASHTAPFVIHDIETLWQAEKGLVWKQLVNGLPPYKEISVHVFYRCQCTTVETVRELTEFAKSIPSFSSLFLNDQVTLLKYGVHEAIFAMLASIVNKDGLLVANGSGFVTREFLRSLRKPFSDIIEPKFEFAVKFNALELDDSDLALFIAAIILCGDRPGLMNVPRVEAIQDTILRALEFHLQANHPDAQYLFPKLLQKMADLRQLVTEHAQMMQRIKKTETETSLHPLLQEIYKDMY
Description: FIG. 3: Illustrates results from a PPARδ(β) ligand binding assay.
This invention also provides methods for screening and identification of compounds that bind to and/or regulate PPARδ(β). The PPARδ(β) ligand binding domain (LBD) from a mammalian species including human and/or a non-mammalian species such as frog (Xenopus), is used for screening for compounds that bind to the LBD (Schmidt et al, Mol. Endocrinology, 6:1634-1641, 1992; Evans et al., Sequence XR-4 in U.S. Pat. No. 5,571,696, 1996; Berger et al. J. Biol. Chem., 274:6718-6725, 1999). […]
A single E.coli colony containing His-tagged PPARδ(β) LBD (amino acid 139-441, Schmidt et al., Mol. Endocrinology, 6:1634-1641, 1992) expressing plasmid DNA is mixed with 3 ml Luria broth (LB) supplemented with 100 μg/ml antibiotic ampicilin and grown at 37° C. […] The plates are then read on Packard top-count beta-scintillation counter (1 minute/well). […] In this binding assay any test compound may replace L-165041 and the binding affinity for PPARδ(β) is easily determined.

- pIC50 (PPARδ(β) LBD): 7.28
Compound: CCCc1c(OCCCOc2ccc(OCC(=O)O)cc2)ccc(C(C)=O)c1O [Compound L-165041]
- Induction of SEAP reporter gene activity (Gal4/PPARδ(β)): dose dependent activation of reporter gene SEAP function; also recorded: dose dependently induced reporter gene activity
